Laboratory results taken from patent US7205261B2, “Use of certain N-acylethanolamines to achieve ethylene- and cytokinin-like effects in plants and fungi” (Nutra-Park, Inc., priority 2002, dated 2007).

Test system: Raphanus sativus L. cv. Cherry Belle cotyledons
Assay: Radish cotyledon bioassay (expansion growth and chlorophyll accumulation)
Type: in vivo
Set-up: Chlorophyll a + b: unit not given here
Settings: Experiment 1; 20 mg/l; 72 h
Source text: Radish cotyledon bioassay: This bioassay using Raphanus sativus L. cv. Cherry Belle cotyledons was developed by Letham, DS (Physiologia Plantarum 25, 391–396, 1971, incorporated by reference in its entirety) to evaluate the efficacy of cytokinin on cell enlargement. Success using this assay is not restricted to radish. […] In addition to their effect on cell division, cytokinin plays a major role in driving cell enlargement. Compounds in this class of phytohormone and with cytokinin activity also help maintain photosynthetic activity and productivity and abolish proteolytic activity. In cotyledon leaf systems, a requirement for cytokinin is critical and removal of the roots (i.e. the presumed source of cytokinin) renders the cotyledon leaves unable to expand. Exposure to cytokinin (0.02–22 μg/ml) results in a dramatic increase in fresh weight of cotyledons within 72 hours. This effect is not observed with either gibberellin or auxin and is usually delayed or inhibited by abscisic acid and the ethylene precursor, 1-aminocyclopropane-1-carboxylic acid (ACC). […] Thus, the mode of action of cytokinin in this system appears to be similar to that of indole-3-acetic acid (IAA) in auxin-induced stem elongation, a process that depends on an increase in the mechanical extensibility of the cell wall. However, cytokinin antagonizes IAA-mediated cell elongation and appears to do so by promoting ethylene production. Furthermore, cytokinin-induced cell expansion is not usually accompanied by proton (H^+) extrusion and no change in plasma membrane ATPase activity is evident.
Seeds of Raphanus sativus L. cv. Cherry-Belle were germinated in darkness at 24° C. for 36 h in Petri dishes containing filter paper wetted with distilled water. The smaller of the two cotyledons was excised, the fresh weight determined, and 10 cotyledons placed adaxial side down on filter paper in Petri dishes containing 10 ml of KPO4 buffer (2 mM, pH 6.0) and the compounds to be tested at 20 mg/l. […] Chlorophyll content was determined after extraction of tissue into 80% ethanol (containing butylated hydroxytoluene (BHT) 10 mg/l) using the equations Chl a=(13.95A663)−(6.88A647) and Chl b=(24.96A652)−(7.32A663) as described by Lichtenthaler, HK, Methods in Enzymology 148: 350–382, 1987, incorporated by reference in its entirety. FIG. 6 illustrates the difference in cotyledon size in response to the cytokinin kinetin.

| SMILES | Change in fresh weight, % of control | Chlorophyll a + b | Chlorophyll a/b |
| --- | --- | --- | --- |
| CCCCCC(=O)NCCO [NAE-6:0, N-Hexanoly-2-aminoethanol] | 57% | 0.65 | 1.6 |
| O=CNCCO [NAE-1, N-Formyl-2-aminoethanol] | – | 0.59 | 1.7 |
| CCCCCCCC(=O)NCCO [NAE-8:0, N-Octanoyl-2-aminoethanol] | – | – | 1.5 |

Same assay, conditions: Experiment 1; 20 mg/l; 72 h; continuous illumination, 25° C.; ten cotyledons

| SMILES | Change in fresh weight |
| --- | --- |
| CCCCCC(=O)NCCO [NAE-6:0, N-Hexanoly-2-aminoethanol] | 8.04 ± 3.86 mg |
| O=CNCCO [NAE-1, N-Formyl-2-aminoethanol] | 7.61 ± 3.42 mg |
| CCCCCCCC(=O)NCCO [NAE-8:0, N-Octanoyl-2-aminoethanol] | 13.32 ± 6.40 mg |

Same assay, conditions: Experiment 2; 20 mg/l; 48 h

| SMILES | Change in fresh weight, % of control | Chlorophyll (mg/g FW) a + b | Chlorophyll (μg/cotyledon) a + b | Chlorophyll a/b |
| --- | --- | --- | --- | --- |
| CCCCCC(=O)NCCO [NAE-6:0, N-Hexanoly-2-aminoethanol] | 87% | 1.73 mg/g FW | 19.80 μg/cotyledon | 2.0 |
| O=CNCCO [NAE-1, N-Formyl-2-aminoethanol] | – | 1.62 mg/g FW | 21.19 μg/cotyledon | 2.0 |
| CCCCCCCC(=O)NCCO [NAE-8:0, N-Octanoyl-2-aminoethanol] | – | 1.75 mg/g FW | 22.27 μg/cotyledon | 1.8 |

Same assay, conditions: Experiment 2; 20 mg/l; 48 h; continuous illumination, 25° C.; ten cotyledons

| SMILES | Change in fresh weight |
| --- | --- |
| CCCCCC(=O)NCCO [NAE-6:0, N-Hexanoly-2-aminoethanol] | 7.02 ± 0.98 mg |
| O=CNCCO [NAE-1, N-Formyl-2-aminoethanol] | 8.68 ± 1.70 mg |
| CCCCCCCC(=O)NCCO [NAE-8:0, N-Octanoyl-2-aminoethanol] | 8.29 ± 0.72 mg |

Same assay, conditions: Raphanus sativus; Experiment 1; 20 mg/l; 72 h; read-out: Change in fresh weight, % of control

| SMILES | activity at 20 µg/mL |
| --- | --- |
| O=CNCCO [NAE-1, N-Formyl-2-aminoethanol] | 54% |
| CCCCCCCC(=O)NCCO [NAE-8:0, N-Octanoyl-2-aminoethanol] | 95% |

Same assay, conditions: Raphanus sativus; Experiment 2; 20 mg/l; 48 h; read-out: Change in fresh weight, % of control

| SMILES | activity at 20 µg/mL |
| --- | --- |
| O=CNCCO [NAE-1, N-Formyl-2-aminoethanol] | 107% |
| CCCCCCCC(=O)NCCO [NAE-8:0, N-Octanoyl-2-aminoethanol] | 102% |

Same assay, conditions: Table 2, 72 h incubation, 20 mg/l

| SMILES | cotyledon expansion (in words) | chlorophyll accumulation (in words) |
| --- | --- | --- |
| CCCCCC(=O)NCCO [NAE-6:0, N-Hexanoly-2-aminoethanol] | significantly slowed cotyledon expansion | – |
| O=CNCCO [NAE-1, N-Formyl-2-aminoethanol] | significantly slowed cotyledon expansion | – |
| CCCCCCCC(=O)NCCO [NAE-8:0, N-Octanoyl-2-aminoethanol] | – | greater effect than other NAEs |

Same assay, conditions: Table 3, 48 h incubation, 20 mg/l

| SMILES | hormone-like activity with respect to expansion growth (in words) |
| --- | --- |
| CCCCCC(=O)NCCO [NAE-6:0, N-Hexanoly-2-aminoethanol] | ethylene-like activity |

Same assay, conditions: summary statement in the description

| SMILES | ethylene-like activities (summary of the examples) |
| --- | --- |
| CCCCCC(=O)NCCO [NAE-6:0, N-Hexanoly-2-aminoethanol] | ethylene-like activities |
| O=CNCCO [NAE-1, N-Formyl-2-aminoethanol] | ethylene-like activities |
| CCCCCCCC(=O)NCCO [NAE-8:0, N-Octanoyl-2-aminoethanol] | ethylene-like activities |

Test system: maize roots
Assay: Corn root bioassay (ethylene production by maize roots)
Type: in vivo, Zea mays L.
Settings: Experiment 1; 20 mg/l; 72 h
Procedure: Corn root bioassay: It is well established that roots of Zea mays produce ethylene when exposed to a variety of stresses (for review, see Morgan, PW and Drew, MC, Physiologia Plantarum 100: 620–630, 1997). Mechanical impedance and hypoxia both induce ethylene formation and usually as early as 1 hour after exposure. In response to ethylene treatment, maize roots show decreased expansion and elongation, a high incidence of cell death and the formation of aerenchyma tissue—particularly evident when roots are exposed to hypoxic conditions (Drew, MC et al., Trends in Plant Science 5: 123–127, 2000, Morgan and Drew 1997).
Seeds of Zea mays L. were sown in flats of Perlite, covered with a layer of vermiculite, and irrigated daily with water and/or 1/10 Hoagland solution. Seedlings were cultivated under continuous illumination at 22–25° C. and used when 7 d old. Seedlings were removed from the Perlite and washed under running tap water. Seedlings were allowed to acclimate in water and/or 1/10 Hoagland solution for several hours before being transferred to Falcon tubes containing the test compounds (all 20 mg/l) prepared in 1/10 Hoagland solution. […] Roots were then transferred to gas-tight tubes each containing 200 μl of water. The tubes were sealed and incubated at 26° C. for 1–2 h in darkness before gas samples were drawn from the incubation tubes using a 1 ml syringe and assayed by gas chromatography (Romera, FJ et al. (1999) Annals of Botany 83, 51–55).

| SMILES | Ethylene, % of control |
| --- | --- |
| CCCCCC(=O)NCCO [NAE-6:0, N-Hexanoly-2-aminoethanol] | 210% |

Same assay, conditions: Zea mays; experiment 1; 20 mg/l; 72 h; read-out: Ethylene, % of control

| SMILES | activity at 20 µg/mL |
| --- | --- |
| O=CNCCO [NAE-1, N-Formyl-2-aminoethanol] | 175% |
| CCCCCCCC(=O)NCCO [NAE-8:0, N-Octanoyl-2-aminoethanol] | 116% |

Same assay, conditions: Zea mays; experiment 2; 20 mg/l; 36 h; read-out: Ethylene, % of control

| SMILES | activity at 20 µg/mL |
| --- | --- |
| O=CNCCO [NAE-1, N-Formyl-2-aminoethanol] | 157% |
| CCCCCCCC(=O)NCCO [NAE-8:0, N-Octanoyl-2-aminoethanol] | 193% |

Same assay, conditions: experiment 1; 20 mg/l; 72 h illumination; roots incubated 2 h in gas tight tubes

| SMILES | Ethylene |
| --- | --- |
| CCCCCC(=O)NCCO [NAE-6:0, N-Hexanoly-2-aminoethanol] | 1244.0 ± 406.2 nL/g FW/h |
| O=CNCCO [NAE-1, N-Formyl-2-aminoethanol] | 1034.4 ± 255.3 nL/g FW/h |
| CCCCCCCC(=O)NCCO [NAE-8:0, N-Octanoyl-2-aminoethanol] | 685.2 ± 211.6 nL/g FW/h |

Same assay, conditions: experiment 2; 20 mg/l; 36 h

| SMILES | Ethylene, % of control |
| --- | --- |
| CCCCCC(=O)NCCO [NAE-6:0, N-Hexanoly-2-aminoethanol] | 141% |

Same assay, conditions: experiment 2; 20 mg/l; 36 h illumination; roots incubated 2 h in darkness at 24° C.

| SMILES | Ethylene |
| --- | --- |
| CCCCCC(=O)NCCO [NAE-6:0, N-Hexanoly-2-aminoethanol] | 40.58 ± 11.85 pmol/g FW/h |
| O=CNCCO [NAE-1, N-Formyl-2-aminoethanol] | 45.32 ± 18.98 pmol/g FW/h |
| CCCCCCCC(=O)NCCO [NAE-8:0, N-Octanoyl-2-aminoethanol] | 55.46 ± 31.59 pmol/g FW/h |

Same assay, conditions: first experiment (Table 4)

| SMILES | relative efficacy on ethylene formation (in words) |
| --- | --- |
| CCCCCC(=O)NCCO [NAE-6:0, N-Hexanoly-2-aminoethanol] | strongest effect |

Same assay, conditions: other experiments using a different treatment time

| SMILES | increase of ethylene production (in words) |
| --- | --- |
| O=CNCCO [NAE-1, N-Formyl-2-aminoethanol] | effective |

Same assay, conditions: second experiment (Table 5)

| SMILES | relative efficacy on ethylene formation (in words) |
| --- | --- |
| CCCCCCCC(=O)NCCO [NAE-8:0, N-Octanoyl-2-aminoethanol] | strongest effect |
